Measurements: the supplement of paper PMC7021759
± gives the standard deviation of the averaged measurements.

Tested on: SK-N-MM (SKNMM-MYCN, doxycycline-inducible MYCN)
Test: area under dose-response curve (CellTiter-Glo viability normalised to plate controls) (AUC (arbitrary units)); higher = more loss of viability; extreme values may be limits of the assay
Summary of the method: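 SK-N-MM cells carrying doxycycline-inducible MYCN were seeded in 96-well plates at 1250 cells/100 μL, and about 24 h later they received medium with or without doxycycline. Two days after that, 10-point 1:3 dilution series of compounds were added by pin transfer (890-fold dilution of stock), with a second dose on day 4. CellTiter-Glo luminescence was measured 3 or 8 days after drugging. Log2 signals were scaled against the positive and negative controls on each plate and used to calculate the area under the dose-response curve.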

[1] = MYCN induction (doxycycline): +doxycycline (MYCN induced), time after drugging: 3 days
[2] = MYCN induction (doxycycline): +doxycycline (MYCN induced), time after drugging: 8 days
[3] = MYCN induction (doxycycline): no doxycycline (MYCN not induced), time after drugging: 3 days
[4] = MYCN induction (doxycycline): no doxycycline (MYCN not induced), time after drugging: 8 days

Row | SMILES | area under dose-response curve [1] | area under dose-response curve [2] | area under dose-response curve [3] | area under dose-response curve [4]
1 | CC(/C=C/C(=O)NO)=C\[C@@H](C)C(=O)c1ccc(N(C)C)cc1 [TRICHOSTATIN A] | 159 | 310 | 124 | 282
2 | CON(C)C(=O)N1N=C(c2cc(F)ccc2F)S[C@@]1(CCCN)c1ccccc1 [ARRY-520] | 218 | 288 | 108 | 154
3 | CC12CC3CC(C)(C1)CC(N)(C3)C2 [MEMANTINE] | 0 | 0 | 0 | 0
4 | CC(C)n1nc(-c2ccc3oc(N)nc3c2)c2c(N)ncnc21 [INK-128] | 36.2 | 38.7 | 29.5 | 59.3
5 | Cc1ccc(NC(=O)c2ccc(CN3CCN(C)CC3)cc2)cc1Nc1nc(-c2cccnc2)cs1 [MASITINIB] | 0 | 0 | 0 | 2.84
6 | COc1ccc(-c2cc(=O)c3c(O)cc(O)c(-c4cc(-c5cc(=O)c6c(O)cc(O)cc6o5)ccc4OC)c3o2)cc1 [ISOGINKGETIN] | – | 61.2 | 15.4 | 24.2
7 | COc1cc2c(NC3CCN(C(C)C)CC3)nc(N3CCC(F)(F)CC3)nc2cc1OCCCN1CCCC1 [UNC0642] | 0 | 203 | 1.33 | 145
8 | C[C@@H](Oc1cc(-c2cnn(C3CCNCC3)c2)cnc1N)c1c(Cl)ccc(F)c1Cl [CRIZOTINIB] | 145 | 196 | 147 | 178
9 | N#CCNC(=O)c1ccc(-c2ccnc(Nc3ccc(N4CCOCC4)cc3)n2)cc1 | 40.7 | 79.9 | 0 | 42
10 | CCN(CCO)CCCC(C)Nc1ccnc2cc(Cl)ccc12 (stereo unspecified) [HYDROXYCHLOROQUINE] | 0 | 0 | – | 0
11 | CC1(C)CCC(CN2CCN(c3ccc(C(=O)NS(=O)(=O)c4ccc(NCC5CCOCC5)c([N+](=O)[O-])c4)c(Oc4cnc5[nH]ccc5c4)c3)CC2)=C(c2ccc(Cl)cc2)C1 [VENETOCLAX] | – | 2.61 ± 3.7 | 0 | 0
12 | O=C(Nc1ccc(Nc2nccc(Nc3cc(C4CCCC4)[nH]n3)n2)cc1)Nc1cccc(C(F)(F)F)c1 [CD532] | 175 | 211 | 156 | 191
13 | C=C1[C@@H](O)[C@@H]2O[C@]3(CC[C@H](/C=C/[C@@H](C)[C@@H]4CC(C)=C[C@@]5(O[C@H](C[C@@](C)(O)C(=O)O)CC[C@H]5O)O4)O3)CC[C@H]2O[C@@H]1[C@@H](O)C[C@H](C)[C@H]1O[C@@]2(CCCCO2)CC[C@H]1C [OKADAIC ACID] | 204 | 277 | 167 | 266
14 | O=C(/C=C\n1cnc(-c2cc(C(F)(F)F)cc(C(F)(F)F)c2)n1)NNc1cnccn1 [SELINEXOR] | 98.9 | 189 | 43.6 | 128
15 | Nc1cc(C(F)(F)F)c(-c2cc(N3CCOCC3)nc(N3CCOCC3)n2)cn1 [BUPARLISIB] | 91.8 | 150 | 65.7 | 86.9
16 | Cc1sc2c(c1C)C(c1ccc(Cl)cc1)=N[C@@H](CC(N)=O)c1nnc(C)n1-2 [CPI-203] | 2.86 | 38.6 | 8.36 | 30.9
17 | Nc1nc2[nH]cnc2c(=S)[nH]1 [THIOGUANINE] | 26.6 | 54.3 | 10.2 | 21.2
18 | CC1=C(CC(=O)O)c2cc(F)ccc2/C1=C\c1ccc([S+](C)[O-])cc1 (stereo unspecified) [SULINDAC] | – | 0 | 0 | 0
19 | COc1c(C)c2c(c(O)c1C/C=C(\C)CCC(=O)OCCN1CCOCC1)C(=O)OC2 [MYCOPHENOLATE MOFETIL] | 43.8 | 115 | 25.9 | 51.4
20 | COc1ncc(-c2ccc3nccc(-c4ccnnc4)c3c2)cc1NS(=O)(=O)c1ccc(F)cc1F [OMIPALISIB] | 105 | 183 | 86.2 | 160
